# In US12091393B2, “Small molecule vaccine adjuvant for enhancing or prolonging immune response” (The Regents of the University of California, priority 2018, dated 2024):
# Entries after “also recorded” stand apart in the source; their conditions may differ. Read-outs that look alike come from different tables or passages of the source.
# Legend:
# NF-κB [1] = assay: Measurement of NF-κB activation using THP1-Blue NF-κB cells (SEAP); assay type: cell-based; details: for activity at 5 µM: 20 h, two point normalized, compound 1 as 200%; for NF-κB activity (SAR discussion, in words): evaluated in both the presence and absence of LPS
# NF-κB [2] = assay: cell-based NF-κB FRET assay; details: compound + LPS; two point normalized, compound 1 as 200%, LPS (10 ng/mL) as 100%
# Description: Site A was assigned the 4-substituent of thiazole ring, site B was the thiazole ring itself, site C was the central amide bond in the structure, site D was the benzene ring bearing 1,4-carboxyl and sulfamoyl group, site E was the sulfonamide functional group and site F was the amide substituent on the sulfamoyl group.
# THP-1 cells = assay: Cell viability assay (MTT); assay type: cell-based; details: compound 5 μM alone, 18 h, normalized to DMSO as 100%
# Outline: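 THP-1 cells in RPMI/10% FBS got compound at a final 5 μM (0.05% DMSO) for 18 h. MTT (0.5 mg/mL) was then added for 4 to 6 h, followed by SDS/HCl lysis overnight. Absorbance was read at 570 nm against 650 nm reference.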
# [3] = compound 5 μM + LPS, LPS (10 ng/mL) as 100%, read-out: NF-κB SEAP Compound + LPS % Activation
# [4] = compound 5 μM alone, LPS or DMSO as 100%, read-out: NF-κB SEAP Compound alone % Activation
SMILES,activity at 5 µM (NF-κB [1]; [3]),activity at 5 µM (NF-κB [1]; [4]),"NF-κB activity (SAR discussion, in words) (NF-κB [1])",NF-κB FRET Compound + LPS % Activation (NF-κB [2]),MTT Compound alone % Viability (THP-1 cells),"NF-κB activity when tested alone (in words) (NF-κB [1]; compound alone, without LPS)"
"Cc1ccc(C)c(-c2csc(NC(=O)c3cccc(C(=O)N4CCCCC4)c3)n2)c1 [Compound 49d, N-(4-(2,5-dimethylphenyl)thiazol-2-yl)-3-(piperidine-1-carbonyl)benzamide]",112%,99.6%,none of these modifications at site D or E were tolerated,136.46%,88.06%,
"Cc1ccc(C)c(-c2csc(NS(=O)(=O)c3ccc(C(=O)N4CCCCC4)cc3)n2)c1 [Compound 55, N-(4-(2,5-dimethylphenyl)thiazol-2-yl)-4-(piperidine-1-carbonyl)benzenesulfonamide]",91.7%,103%,inactive,70.37%,58.91%,
"CCCN(CC)S(=O)(=O)c1ccc(C(=O)Nc2nc(-c3cc(C)ccc3C)cs2)cc1 [Compound 58a, N-(4-(2,5-dimethylphenyl)thiazol-2-yl)-4-(N-ethyl-N-propylsulfamoyl)benzamide]",217%,207%,tolerated; also recorded: active,158.36%,73.63%,
"CCCN(CCC)S(=O)(=O)c1ccc(C(=O)Nc2nc(-c3cc(C)ccc3C)cs2)cc1 [Compound 58b, N-(4-(2,5-dimethylphenyl)thiazol-2-yl)-4-(N,N-dipropylsulfamoyl)benzamide]",260%,243%,tolerated; also recorded: active,190.52%,83.69%,
"CCCCN(CCCC)S(=O)(=O)c1ccc(C(=O)Nc2nc(-c3cc(C)ccc3C)cs2)cc1 [Compound 58c, 4-(N,N-dibutylsulfamoyl)-N-(4-(2,5-dimethylphenyl)thiazol-2-yl)benzamide]",105%,103%,lost activity,104.47%,86.41%,
"CCN(c1ccccc1)S(=O)(=O)c1ccc(C(=O)Nc2nc(-c3cc(C)ccc3C)cs2)cc1 [Compound 58d, N-(4-(2,5-dimethylphenyl)thiazol-2-yl)-4-(N-ethyl-N-phenylsulfamoyl)benzamide]",89.8%,105%,inactive,74.73%,81.42%,
"Cc1ccc(C)c(-c2csc(NC(=O)c3ccc(S(=O)(=O)NC4CCCCC4)cc3)n2)c1 [Compound 58e, 4-(N-cyclohexylsulfamoyl)-N-(4-(2,5-dimethylphenyl)thiazol-2-yl)benzamide]",94.5%,98.3%,inactive,52.23%,93.65%,
"Cc1ccc(C)c(-c2csc(NC(=O)c3ccc(S(=O)(=O)N4CCN(C(=O)OC(C)(C)C)CC4)cc3)n2)c1 [Compound 58f, tert-butyl 4-((4-((4-(2,5-dimethylphenyl)thiazol-2-yl)carbamoyl)phenyl)sulfonyl)piperazine-1-carboxylate]",105%,101%,inactive,95.64%,81.23%,
"CCOC1CCN(S(=O)(=O)c2ccc(C(=O)Nc3nc(-c4cc(C)ccc4C)cs3)cc2)CC1 [Compound 58g, N-(4-(2,5-dimethylphenyl)thiazol-2-yl)-4-((4-ethoxypiperidin-1-yl)sulfonyl)benzamide]",178%,200%,active,189.46%,112.63%,
"CCCC1CCN(S(=O)(=O)c2ccc(C(=O)Nc3nc(-c4cc(C)ccc4C)cs3)cc2)CC1 [Compound 58h, N-(4-(2,5-dimethylphenyl)thiazol-2-yl)-4-((4-propylpiperidin-1-yl)sulfonyl)benzamide]",248%,517%,active; also recorded: most potent,218.16%,111.27%,very potent
"Cc1ccc(C)c(-c2csc(NC(=O)c3ccc(S(=O)(=O)N4CCNCC4)cc3)n2)c1 [Compound 58i, N-(4-(2,5-dimethylphenyl)thiazol-2-yl)-4-(piperazin-1-ylsulfonyl)benzamide]",104%,101%,inactive,101.27%,75.86%,
"CC(=O)N1CCN(S(=O)(=O)c2ccc(C(=O)Nc3nc(-c4cc(C)ccc4C)cs3)cc2)CC1 [Compound 58j, 4-((4-acetylpiperazin-1-yl)sulfonyl)-N-(4-(2,5-dimethylphenyl)thiazol-2-yl)benzamide]",101%,101%,inactive,90.73%,72.09%,
"CCCN1CCN(S(=O)(=O)c2ccc(C(=O)Nc3nc(-c4cc(C)ccc4C)cs3)cc2)CC1 [Compound 58k, N-(4-(2,5-dimethylphenyl)thiazol-2-yl)-4-((4-propylpiperazin-1-yl)sulfonyl)benzamide]",110%,101%,inactive,100.84%,50.85%,
"CCCC1CCN(S(=O)(=O)c2ccc(C(=O)Nc3nc(-c4cc(C)ccc4Br)cs3)cc2)CC1 [Compound 59, N-(4-(2-bromo-5-methylphenyl)thiazol-2-yl)-4-((4-propylpiperidin-1-yl)sulfonyl)benzamide]",298%,484%,very potent and showed better potency than compound 1,211.88%,98.59%,
"CCCC#Cc1sc(NC(=O)c2ccc(S(=O)(=O)N3CCC(CCC)CC3)cc2)nc1-c1cc(C)ccc1C [Compound 61, N-(4-(2,5-dimethylphenyl)-5-(pent-1-yn-1-yl)thiazol-2-yl)-4-((4-propylpiperidin-1-yl)sulfonyl)benzamide]",189%,119%,very potent and showed better potency than compound 1,207.19%,102.98%,
"CCCC#Cc1sc(NC(=O)c2ccc(S(=O)(=O)N3CCCCC3)cc2)nc1-c1cc(C)ccc1Br [Compound 64, N-(4-(2-bromo-5-methylphenyl)-5-(pent-1-yn-1-yl)thiazol-2-yl)-4-(piperidin-1-ylsulfonyl)benzamide]",287%,348%,very potent and showed better potency than compound 1,196.14%,101.42%,
